Experimental data from US20250381179A1, “CHROMAN-BASED COMPOUNDS FOR TREATING CANCER” (priority 2024, published 2025).

Test: Phase 1 study: safety and tolerability (TEAEs, NCI CTCAE v5.0)
Procedure: The study employed an open-label, 3+3 design, with the option of adding backfill patients to each cohort cleared and deemed safe. […] Tumor responses were assessed every 2 cycles using RECIST v1.1 criteria. […] The study also involves an ongoing dose escalation study where participants receive 100 mg, 200 mg, 300 mg, 400 mg, and 600 mg once daily (QD) dose levels.
Safety was assessed through the analysis of the reported incidence of treatment-emergent AEs. Treatment-emergent AEs are those with an onset on or after the initiation of therapy and will be graded according to NCI CTCAE Version 5.0. Other safety endpoints, including laboratory results, vital signs, and ECG findings, were summarized for all patients in the Safety set.

Q: For `O=C1CC[C@H](N2Cc3cc(N4CCN(CC5CCN(c6ccc([C@@H]7c8ccc(O)cc8OC[C@@H]7c7ccccc7)cc6F)CC5)CC4)ccc3C2=O)C(=O)N1` [compound (1-g), (S)-3-(5-(4-((1-(2-fluoro-4-((3S,4R)-7-hydroxy-3-phenylchroman-4-yl)phenyl)piperidin-4-yl)methyl)piperazin-1-yl)-1-oxoisoindolin-2-yl)piperidine-2,6-dione], which “TEAE: Nausea” value (400 mg QD (N = 6)) is on record?
A: 1 (16.7) n (%)

Q: What about the “TEAE: Neutrophil Count Decreased” value (400 mg QD (N = 6)) of the same molecule?
A: 2 (33.3) n (%)

Q: What about the “TEAE: Oedema Peripheral” value (400 mg QD (N = 6)) of the same molecule?
A: 1 (16.7) n (%)

Q: And the “TEAE: Ophthalmic Migraine” value (400 mg QD (N = 6))?
A: 0 n (%)

Q: And the “TEAE: Oral Pain” value (400 mg QD (N = 6))?
A: 0 n (%)

Q: What about the “TEAE: Pain In Extremity” value (400 mg QD (N = 6)) of the same molecule?
A: 0 n (%)

Q: What about the “TEAE: Pharyngitis” value (400 mg QD (N = 6)) of the same molecule?
A: 0 n (%)

Q: What about the “TEAE: Platelet Count Decreased” value (400 mg QD (N = 6)) of the same molecule?
A: 1 (16.7) n (%)

Q: And the “TEAE: Pleural Effusion” value (400 mg QD (N = 6))?
A: 0 n (%)

Q: And the “TEAE: Pneumonia” value (400 mg QD (N = 6))?
A: 0 n (%)

Q: What about the “TEAE: Productive Cough” value (400 mg QD (N = 6)) of the same molecule?
A: 0 n (%)

Q: And the “TEAE: Rash Maculo-Papular” value (400 mg QD (N = 6))?
A: 0 n (%)

Q: And the “TEAE: Rhinitis Allergic” value (400 mg QD (N = 6))?
A: 0 n (%)

Q: And the “TEAE: Rib Fracture” value (400 mg QD (N = 6))?
A: 0 n (%)

Q: And the “TEAE: Seizure” value (400 mg QD (N = 6))?
A: 0 n (%)

Q: What about the “TEAE: Sepsis” value (400 mg QD (N = 6)) of the same molecule?
A: 0 n (%)

Q: What about the “TEAE: Tremor” value (400 mg QD (N = 6)) of the same molecule?
A: 0 n (%)

Q: And the “TEAE: Upper Respiratory Tract Infection” value (400 mg QD (N = 6))?
A: 0 n (%)

Q: What about the “TEAE: Urinary Tract Infection” value (400 mg QD (N = 6)) of the same molecule?
A: 0 n (%)

Q: And the “TEAE: Vaginal Haemorrhage” value (400 mg QD (N = 6))?
A: 0 n (%)

Q: What about the “TEAE: Vomiting” value (400 mg QD (N = 6)) of the same molecule?
A: 0 n (%)

Q: And the “related TEAE: Alopecia” value (400 mg QD (N = 6))?
A: 1 (16.7) n (%)

Q: And the “related TEAE: Arthralgia” value (400 mg QD (N = 6))?
A: 0 n (%)

Q: What about the “related TEAE: Constipation” value (400 mg QD (N = 6)) of the same molecule?
A: 1 (16.7) n (%)

Q: What about the “related TEAE: Diarrhea” value (400 mg QD (N = 6)) of the same molecule?
A: 1 (16.7) n (%)

Q: What about the “related TEAE: Dysgeusia” value (400 mg QD (N = 6)) of the same molecule?
A: 1 (16.7) n (%)

Q: And the “related TEAE: Eructation” value (400 mg QD (N = 6))?
A: 1 (16.7) n (%)

Q: What about the “related TEAE: Fatigue” value (400 mg QD (N = 6)) of the same molecule?
A: 0 n (%)

Q: And the “related TEAE: Flatulence” value (400 mg QD (N = 6))?
A: 1 (16.7) n (%)

Q: What about the “related TEAE: Hot Flush” value (400 mg QD (N = 6)) of the same molecule?
A: 0 n (%)

Q: What about the “related TEAE: Hyperhidrosis” value (400 mg QD (N = 6)) of the same molecule?
A: 0 n (%)

Q: What about the “related TEAE: Nail Disorder” value (400 mg QD (N = 6)) of the same molecule?
A: 1 (16.7) n (%)

Q: What about the “related TEAE: Nausea” value (400 mg QD (N = 6)) of the same molecule?
A: 1 (16.7) n (%)

Q: And the “related TEAE: Neutrophil Count Decreased” value (400 mg QD (N = 6))?
A: 2 (33.3) n (%)

Q: What about the “related TEAE: Platelet Count Decreased” value (400 mg QD (N = 6)) of the same molecule?
A: 1 (16.7) n (%)

Q: What about the “related TEAE: Tremor” value (400 mg QD (N = 6)) of the same molecule?
A: 0 n (%)

Q: And the “related TEAE: Vomiting” value (400 mg QD (N = 6))?
A: 0 n (%)

Q: What about the “Patients with Any Compound (1-g) related TEAE” value (600 mg QD (N = 4)) of the same molecule?
A: 2 (50.0) n (%)

Q: And the “Patients with Any TEAE” value (600 mg QD (N = 4))?
A: 2 (50.0) n (%)

Q: What about the “TEAE: Abdominal Distension” value (600 mg QD (N = 4)) of the same molecule?
A: 0 n (%)

Q: And the “TEAE: Abdominal Pain” value (600 mg QD (N = 4))?
A: 0 n (%)

Q: What about the “TEAE: Acute Kidney Injury” value (600 mg QD (N = 4)) of the same molecule?
A: 0 n (%)

Q: And the “TEAE: Adrenal Insufficiency” value (600 mg QD (N = 4))?
A: 0 n (%)

Q: And the “TEAE: Alopecia” value (600 mg QD (N = 4))?
A: 0 n (%)

Q: What about the “TEAE: Anaemia” value (600 mg QD (N = 4)) of the same molecule?
A: 0 n (%)

Q: And the “TEAE: Anxiety” value (600 mg QD (N = 4))?
A: 0 n (%)

Q: And the “TEAE: Arthralgia” value (600 mg QD (N = 4))?
A: 0 n (%)

Q: And the “TEAE: Axillary Vein Thrombosis” value (600 mg QD (N = 4))?
A: 0 n (%)

Q: And the “TEAE: Back Pain” value (600 mg QD (N = 4))?
A: 1 (25.0) n (%)

Q: What about the “TEAE: Basal Cell Carcinoma” value (600 mg QD (N = 4)) of the same molecule?
A: 0 n (%)

Q: What about the “TEAE: Breast Pain” value (600 mg QD (N = 4)) of the same molecule?
A: 0 n (%)

Q: What about the “TEAE: Confusional State” value (600 mg QD (N = 4)) of the same molecule?
A: 0 n (%)

Q: And the “TEAE: Constipation” value (600 mg QD (N = 4))?
A: 1 (25.0) n (%)

Q: And the “TEAE: Cough” value (600 mg QD (N = 4))?
A: 0 n (%)

Q: And the “TEAE: Covid-19 Pneumonia” value (600 mg QD (N = 4))?
A: 0 n (%)

Q: And the “TEAE: Dehydration” value (600 mg QD (N = 4))?
A: 0 n (%)

Q: What about the “TEAE: Diarrhoea” value (600 mg QD (N = 4)) of the same molecule?
A: 0 n (%)

Q: And the “TEAE: Dizziness” value (600 mg QD (N = 4))?
A: 0 n (%)

Q: And the “TEAE: Dysgeusia” value (600 mg QD (N = 4))?
A: 0 n (%)

Q: And the “TEAE: Dyspepsia” value (600 mg QD (N = 4))?
A: 0 n (%)

Q: What about the “TEAE: Dyspnoea” value (600 mg QD (N = 4)) of the same molecule?
A: 0 n (%)

Q: What about the “TEAE: Dysuria” value (600 mg QD (N = 4)) of the same molecule?
A: 0 n (%)

Q: And the “TEAE: Eructation” value (600 mg QD (N = 4))?
A: 0 n (%)

Q: And the “TEAE: Fall” value (600 mg QD (N = 4))?
A: 0 n (%)

Q: And the “TEAE: Fatigue” value (600 mg QD (N = 4))?
A: 0 n (%)

Q: What about the “TEAE: Flatulence” value (600 mg QD (N = 4)) of the same molecule?
A: 0 n (%)

Q: What about the “TEAE: Fracture” value (600 mg QD (N = 4)) of the same molecule?
A: 0 n (%)

Q: What about the “TEAE: Fungal Infection” value (600 mg QD (N = 4)) of the same molecule?
A: 0 n (%)

Q: And the “TEAE: Haematoma” value (600 mg QD (N = 4))?
A: 0 n (%)

Q: And the “TEAE: Hot Flush” value (600 mg QD (N = 4))?
A: 1 (25.0) n (%)

Q: What about the “TEAE: Hyperglycaemia” value (600 mg QD (N = 4)) of the same molecule?
A: 0 n (%)

Q: What about the “TEAE: Hyperhidrosis” value (600 mg QD (N = 4)) of the same molecule?
A: 1 (25.0) n (%)

Q: What about the “TEAE: Hypokalaemia” value (600 mg QD (N = 4)) of the same molecule?
A: 0 n (%)

Q: And the “TEAE: Hypotension” value (600 mg QD (N = 4))?
A: 0 n (%)
